How the values were obtained:
hP2X2/3H = molecular target: T1, hP2X2/3H (Homo sapiens, UniProt P56373+Q9UBL9); test: Calcium uptake assay (Ca influx), P2X antagonist assay, P2X2/3 heteromer; type: cell-based; settings: inhibition of agonist-induced calcium influx
T1 construct: expressed in transfected cells
T1 sequence (P56373 1-397): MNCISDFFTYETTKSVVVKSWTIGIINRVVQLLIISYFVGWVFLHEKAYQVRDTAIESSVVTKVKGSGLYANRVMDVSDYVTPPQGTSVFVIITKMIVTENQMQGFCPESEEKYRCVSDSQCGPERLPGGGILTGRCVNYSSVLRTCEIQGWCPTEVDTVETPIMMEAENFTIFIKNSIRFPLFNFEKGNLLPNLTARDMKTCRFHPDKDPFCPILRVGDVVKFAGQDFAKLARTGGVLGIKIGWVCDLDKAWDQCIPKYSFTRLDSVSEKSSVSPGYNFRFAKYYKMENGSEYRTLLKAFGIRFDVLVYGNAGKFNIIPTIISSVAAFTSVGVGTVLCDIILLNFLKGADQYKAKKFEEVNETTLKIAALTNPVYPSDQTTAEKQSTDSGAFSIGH
T1 sequence (Q9UBL9 1-471): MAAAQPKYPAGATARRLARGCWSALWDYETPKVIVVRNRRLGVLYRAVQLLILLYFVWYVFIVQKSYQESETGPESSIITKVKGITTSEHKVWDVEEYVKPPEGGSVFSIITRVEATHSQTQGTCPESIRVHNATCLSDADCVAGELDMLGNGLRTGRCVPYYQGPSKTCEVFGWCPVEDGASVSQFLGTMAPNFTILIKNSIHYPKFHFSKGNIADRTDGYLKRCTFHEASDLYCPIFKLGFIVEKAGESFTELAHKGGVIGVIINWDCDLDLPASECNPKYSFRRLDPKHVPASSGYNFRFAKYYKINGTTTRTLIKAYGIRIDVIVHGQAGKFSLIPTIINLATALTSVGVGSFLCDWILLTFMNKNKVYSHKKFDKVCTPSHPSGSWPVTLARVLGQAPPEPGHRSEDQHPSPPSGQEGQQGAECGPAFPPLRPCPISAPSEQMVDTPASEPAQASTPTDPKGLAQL
Procedure, shortened: (§1)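 Receptors expressed in HEK293 or 1321N1 cells, transiently or stably; heteromer from P2X3 transfected into P2X2-stable line. Fluo-4-type dye in HBSS; compound pre-treatment 1–30 min, then agonist (αβMeATP, ATP or analog) at EC50-90. FLIPR peak minus baseline fluorescence; IC50 by 4-parameter fit, 1 pM–10 μM.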

hP2X3 = molecular target: T2, hP2X3 (Homo sapiens, UniProt P56373); test: Calcium uptake assay (Ca influx), P2X antagonist assay, P2X3 homomer; type: cell-based; settings: inhibition of agonist-induced calcium influx
T2 construct: expressed in transfected cells
T2 sequence (P56373 1-397): T1 sequence (P56373 1-397)
Procedure, shortened: as §1

IC50 (hP2X2/3H): 18.6 nM | IC50 (hP2X3): 22.2 nM
Compound: Cc1ccc(-c2cc(C(=O)N[C@H](C)CN3CCOCC3)cc(-c3cnccc3C#N)c2)c(C#N)c1 [Compound 87, (R)-2′-Cyano-5-(4-cyanopyridin-3-yl)-4′-methyl-N-(1-morpholinopropan-2-yl)biphenyl-3-carboxamide]

Source: patent publication US9133122B2, “Amide compounds, compositions and uses thereof” (EVOTEC AG, priority 2008, dated 2015)
